Experimental data reported in patent publication US6518308B2, “Compositions for adhesion prevention” (priority 2000, dated 2003).

Assays:
[1] = system: human mesothelial cells or human fibroblasts; assay: cell cultures under hypoxic conditions, production of inflammatory cytokines and growth factors; format: cell-based; conditions: human mesothelial cells or human fibroblasts cultured under hypoxic conditions, presence vs absence of dichloroacetic acid
Method: Similarly, cell cultures using human mesothelial cells or human fibroblasts are cultured under hypoxic conditions in the presence and absence of dichloroacetic acid. The production of inflammatory cytokines and growth factors is measured, and found to be reduced in the presence of dichloroacetic acid. These growth factors, such as IL-1 and TGF-β, are believed to be associated with adhesion development.

[2] = animal adhesion study, monitoring of serum alanine and lactate; format: in vivo, rat or rabbit; conditions: in the presence of dichloroacetic acid, intravenous injection or slow release
Method: An animal adhesion study to evaluate the effectiveness of the pharmaceutical compositions described previously is conducted using a standardized animal model, such as a model of cecal abrasion in the rat or an oravian bisection in the rabbit.
The animals undergo lesioning by a surgeon unaware of group assignment, with necropsy performed one to two weeks later as is standard for that particular animal model.
The animals are randomized in a placebo control group and a group using dichloroacetic acid. The treatment begins preoperatively, and continues for five days after surgery. Dichloroacetic acid is administered by intravenous injection, or by slow release from a delivery agent, and is left in the peritoneal cavity following surgery. The maintenance of adequate amounts of dichloroacetic acid can be monitored by the measurement of serum alanine and lactate, which is reduced in the presence of dichloroacetic acid. Necropsy is performed on the animals, and adhesions are scored. Studies are completed on a total of 30 animals in each group in at least three settings.

SMILES: O=C(O)C(Cl)Cl [dichloroacetic acid]
- production of inflammatory cytokines and growth factors (such as IL-1 and TGF-β) [1]: reduced
- serum alanine and lactate [2]: reduced
